Measurements published in US9034596B1, “Method for fluorescent staining of cellular and intracellular membranes” (KUWAIT UNIVERSITY, priority 2014, dated 2015).

Legend:
LS174T cells = test: fluorescent staining of cellular and intracellular membranes, confocal microscopy; type: cell-based
Protocol: Monolayer cultures were grown in RPMI 1640 medium (Gibco) supplemented with 10% fetal bovine serum (FBS) (Gibco), 1% L-glutamine (Gibco), 1% penicillin/streptomycin (Gibco) as an antibacterial agent and 0.1% amphotericin (Sigma) as an antifungal agent. The cultures were maintained at 37° C. in a CO2 incubator with humidified atmosphere, 5% CO2 and 95% air. Confluent cultures (80-90%) were used for experiments. The cells were then detached by trypsinization and incubation at 37° C. for 2-3 minutes. Fresh medium (10× to trypsin's volume) was added to inhibit trypsin action. The cell suspension was centrifuged at 500 g for three minutes. The supernatant was discarded and the pellet obtained was resuspended in fresh medium. Cells were counted and seeded onto sterile glass cover slips at 5×10^4 cells per slip and incubated overnight to adhere. ZnTnHex-4-PyPCl4 was added and the cells were incubated with the compound in the dark. The cells were then fixed with ice cold absolute ethanol added to a final concentration of 60%, and the plate containing the slips was kept on ice for 10 minutes. The cells were washed with PBS twice and the slips were transferred onto microscopic slides. Vectashield mounting medium from Vector Laboratories was used. The slides were examined using a Zeiss LSM 510 META confocal fluorescence microscope fitted with standard FITC, Rhodamine and DAPI filter sets.
LS174T cells were counted and seeded onto sterile glass cover slips at 5×10^4 cells per slip and incubated over-night to adhere. The dye was added to a final concentration of 0.5-2.5 μM and the cells were incubated with ZnTnHex-4-PyPCl4 in the dark for 15-30 minutes. The cells were then fixed with ice cold absolute ethanol added to a final concentration of 60%, and the plate containing the slips was kept on ice for 10 minutes. The cells were washed with PBS twice and the slips were transferred onto microscopic slides. […] The slides were examined using a Zeiss LSM 510 META confocal fluorescence microscope fitted with standard FITC, Rhodamine and DAPI filter sets.

[1] = storage stability of sterilized probe; settings: refrigerated in the dark
cells = test: harm to cells incubated with the fluorescent probe; settings: 20 μM, shielded from light

For `CCCCCC[n+]1ccc(C2=C3C=CC4=[N+]3[Zn]35[n]6c2ccc6C(c2cc[n+](CCCCCC)cc2)=C2C=CC(=[N+]23)C(c2cc[n+](CCCCCC)cc2)=c2ccc([n]25)=C4c2cc[n+](CCCCCC)cc2)cc1` [ZnTnHex-4-PyPCl4, Zn(II) meso-tetrakis(N-n-hexylpyridinium-4-yl)porphyrin tetrachloride], the subcellular localization (LS174T cells; LSI74T cells, 20 μM, 24 hours pre-incubation in the dark, FIG. 2) was “mitochondria, lysosomes, the ER and the plasma membrane”, the “time to stain cellular and intracellular membranes” value (LS174T cells; concentrations as low as about 0.5-2.5 μM) was at most 15 min and the “concentration needed for staining membranes” value (LS174T cells; living mammalian cells) was 0.5 to 1 µM. For the same compound, the solubility in water (solubility) was “water soluble”, the storage stability [1] was “kept for months” and the harm to cells (cells) was “without harming cells”.
